Reference: patent US12005056B2, “Centrally-active ghrelin agonist and medical uses thereof” (Helsinn Healthcare SA, priority 2018, dated 2024)

Legend:
[1] = system: oxaliplatin-treated Balb/C mice; conditions: oxaliplatin 6 mg/kg i.p. twice weekly for 4 weeks
[2] = Comparative pharmacokinetics versus reference compounds, dog
[3] = Comparative pharmacokinetics versus reference compounds, rat
[4] = Dog, IV, dosing level 1 mg/kg (level not given for Reference 2)
[5] = Dog, PO, dosing level 2 mg/kg (level not given for Reference 2)
[6] = Rat, 2 hours after intravenous administration
[7] = Rat, IV, dosing level 3 mg/kg (level not given for Reference 2)
[8] = Rat, PO, dosing level 3 mg/kg (level not given for Reference 2)

O=C1[O][Pt]2([NH][C@@H]3CCCC[C@H]3[NH]2)[O]C1=O [Oxaliplatin, reference compound]
decrease in caudal NCV vs. vehicle-treated mice [1]: 8±1.1% | reduction in IENFD in the footpads vs. vehicle-treated mice [1]: −31.7±3.5% | decrease in digital potential amplitude ([1]; not statistically significant): 13.5+/−6.4%

COc1ccc([C@H](C)NC(=O)N(O)C2CCN(C)CC2)c2ccccc12 [Reference 2]
AUC (0-t) [2, 4]: 14810.5 ng·h/mL | CLz/F [2, 4]: 0.67 mL/min/kg | AUC (0-t) [2, 5]: 28288.2 ng·h/mL | CLz/F [2, 5]: 1 mL/min/kg | F [2, 5]: 95.5% | Cmax ([2]; dog, in vivo, iv, 1 mg/kg): 1520 ng/mL | half-life ([2]; dog, in vivo, iv, 1 mg/kg): 22.2 h | Cmax ([2]; dog, in vivo, po, 2 mg/kg): 2040 ng/mL | Vd/F ([2]; dog, in vivo, po, 2 mg/kg): 0.9 L/kg | half-life ([2]; dog, in vivo, po, 2 mg/kg): 11.8 h | tmax ([2]; dog, in vivo, po, 2 mg/kg): 0.67 h | 2 hr brain concentration [3, 6]: 79.6 ng · g | 2 hr plasma concentration [3, 6]: 790.3 ng/mL | AUC (0-t) [3, 7]: 8412.7 ng·h/mL | CLz/F [3, 7]: 5 mL/min/kg | AUC (0-t) [3, 8]: 6139.8 ng·h/mL | CLz/F [3, 8]: 6.7 mL/min/kg | F [3, 8]: 73.0% | Kp at 2 h ([3]; rat, brain/plasma, iv): 0.1 | Cmax ([3]; rat, plasma, iv, 3 mg/kg): 1220 ng/mL | half-life ([3]; rat, plasma, iv, 3 mg/kg): 5.8 h | Cmax ([3]; rat, plasma, po, 3 mg/kg): 481 ng/mL | Vd/F ([3]; rat, plasma, po, 3 mg/kg): 3.3 L/kg | half-life ([3]; rat, plasma, po, 3 mg/kg): 6.1 h | tmax ([3]; rat, plasma, po, 3 mg/kg): 6 h

COc1ccc(C(C)NC(=O)N(C)C2CCN(C)CC2(C)C)c(Cl)c1Cl (centres unmarked) [free base, 3-(1-(2,3-dichloro-4-methoxyphenyl)ethyl)-1-methyl-1-(1,3,3-trimethylpiperidin-4-yl)urea]
solubility (Water solubility testing): < 2000 µg/mL
